Data published in the supplement of paper PMC5662764.
± gives the standard deviation of the averaged measurements.

Experiments:
Assay in all cases: normalised growth rate inhibition (GR value) relative to DMSO control (GR (1 = untreated growth, 0 = cytostasis, <0 = cytotoxic)); higher = less growth inhibition
Conditions in all cases: 72 h
MCF7 = tested on: MCF7
Method: (§1)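 Breast cancer cell lines (BT-20, Hs 578T, MCF 10A, MCF7, MDA-MB-231, SK-BR-3) were plated in 384-well plates and treated 24 h later with drugs at six concentrations (0.04-10 µM). Viable cells were counted by Hoechst/dead-cell-stain imaging at 0 and 72 h. Counts were normalised to DMSO controls on the same plate to give the relative cell count and the growth-rate inhibition (GR) value; technical plate triplicates were averaged for each biological replicate.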

MCF10A = tested on: MCF10A
Method: as §1

HS578T = tested on: HS578T
Method: as §1

SKBR3 = tested on: SKBR3
Method: as §1

MDAMB231 = tested on: MDAMB231
Method: as §1

BT20 = tested on: BT20
Method: as §1

| Structure (SMILES) | normalised growth rate inhibition (MCF7; 0.04 µM) | normalised growth rate inhibition (MCF7; 0.12 µM) | normalised growth rate inhibition (MCF7; 0.37 µM) | normalised growth rate inhibition (MCF7; 1.11 µM) | normalised growth rate inhibition (MCF7; 3.33 µM) | normalised growth rate inhibition (MCF7; 10 µM) | normalised growth rate inhibition (MCF10A; 0.04 µM) | normalised growth rate inhibition (MCF10A; 0.12 µM) | normalised growth rate inhibition (MCF10A; 0.37 µM) | normalised growth rate inhibition (MCF10A; 1.11 µM) | normalised growth rate inhibition (MCF10A; 3.33 µM) | normalised growth rate inhibition (MCF10A; 10 µM) | normalised growth rate inhibition (HS578T; 0.04 µM) | normalised growth rate inhibition (HS578T; 0.12 µM) | normalised growth rate inhibition (HS578T; 0.37 µM) | normalised growth rate inhibition (HS578T; 1.11 µM) | normalised growth rate inhibition (HS578T; 3.33 µM) | normalised growth rate inhibition (HS578T; 10 µM) | normalised growth rate inhibition (SKBR3; 0.04 µM) | normalised growth rate inhibition (SKBR3; 0.12 µM) | normalised growth rate inhibition (SKBR3; 0.37 µM) | normalised growth rate inhibition (SKBR3; 1.11 µM) | normalised growth rate inhibition (SKBR3; 3.33 µM) | normalised growth rate inhibition (SKBR3; 10 µM) | normalised growth rate inhibition (MDAMB231; 0.04 µM) | normalised growth rate inhibition (MDAMB231; 0.12 µM) | normalised growth rate inhibition (MDAMB231; 0.37 µM) | normalised growth rate inhibition (MDAMB231; 1.11 µM) | normalised growth rate inhibition (MDAMB231; 3.33 µM) | normalised growth rate inhibition (MDAMB231; 10 µM) | normalised growth rate inhibition (BT20; 0.04 µM) | normalised growth rate inhibition (BT20; 0.12 µM) | normalised growth rate inhibition (BT20; 0.37 µM) | normalised growth rate inhibition (BT20; 1.11 µM) | normalised growth rate inhibition (BT20; 3.33 µM) | normalised growth rate inhibition (BT20; 10 µM) |
| --- | --- | --- | --- | --- | --- | --- | --- | --- | --- | --- | --- | --- | --- | --- | --- | --- | --- | --- | --- | --- | --- | --- | --- | --- | --- | --- | --- | --- | --- | --- | --- | --- | --- | --- | --- | --- |
| C[C@]1(O)C[C@@H](c2nc(-c3ccc4ccc(-c5ccccc5)nc4c3)c3c(N)nccn32)C1 [linsitinib] | 0.721 ± 0.014 | 0.749 ± 0.12 | 0.555 ± 0.19 | 0.449 ± 0.14 | 0.383 ± 0.091 | 0.271 ± 0.089 | 0.956 ± 0.055 | 0.911 ± 0.081 | 0.824 ± 0.16 | 0.783 ± 0.18 | 0.731 ± 0.2 | 0.626 ± 0.26 | 0.975 ± 0.034 | 0.979 ± 0.024 | 0.93 ± 0.019 | 0.972 ± 0.048 | 0.963 ± 0.021 | 0.831 ± 0.072 | 0.657 ± 0.19 | 0.765 ± 0.11 | 0.806 ± 0.067 | 0.739 ± 0.072 | 0.678 ± 0.064 | 0.538 ± 0.085 | 0.791 ± 0.048 | 0.843 ± 0.067 | 0.861 ± 0.085 | 0.862 ± 0.068 | 0.838 ± 0.081 | 0.697 ± 0.099 | 0.841 ± 0.032 | 0.9 ± 0.032 | 0.949 ± 0.07 | 0.924 ± 0.054 | 0.896 ± 0.05 | 0.797 ± 0.051 |
| CO[C@H]1C[C@@H]2CC[C@@H](C)[C@@](O)(O2)C(=O)C(=O)N2CCCC[C@H]2C(=O)O[C@H]([C@H](C)C[C@@H]2CC[C@@H](O)[C@H](OC)C2)CC(=O)[C@H](C)/C=C(\C)[C@@H](O)[C@@H](OC)C(=O)[C@H](C)C[C@H](C)/C=C/C=C/C=C/1C [sirolimus] | 0.502 ± 0.075 | 0.502 ± 0.07 | 0.486 ± 0.048 | 0.49 ± 0.08 | 0.495 ± 0.048 | 0.456 ± 0.096 | 0.982 ± 0.074 | 0.999 ± 0.069 | 0.995 ± 0.082 | 0.997 ± 0.077 | 1 ± 0.089 | 0.986 ± 0.087 | 0.629 ± 0.089 | 0.619 ± 0.048 | 0.619 ± 0.055 | 0.632 ± 0.072 | 0.621 ± 0.066 | 0.62 ± 0.09 | 0.47 ± 0.069 | 0.449 ± 0.056 | 0.405 ± 0.12 | 0.389 ± 0.09 | 0.366 ± 0.082 | 0.353 ± 0.1 | 0.802 ± 0.049 | 0.781 ± 0.039 | 0.812 ± 0.048 | 0.787 ± 0.042 | 0.784 ± 0.07 | 0.8 ± 0.087 | 0.54 ± 0.03 | 0.514 ± 0.062 | 0.522 ± 0.056 | 0.524 ± 0.067 | 0.536 ± 0.061 | 0.587 ± 0.043 |
| COc1cc2ncnc(Nc3ccc(F)c(Cl)c3)c2cc1OCCCN1CCOCC1 [gefitinib] | 1.09 ± 0.064 | 1.06 ± 0.069 | 1.05 ± 0.083 | 1.04 ± 0.092 | 1.03 ± 0.069 | 0.808 ± 0.04 | 0.887 ± 0.052 | 0.59 ± 0.11 | 0.265 ± 0.088 | 0.122 ± 0.01 | 0.121 ± 0.024 | 0.105 ± 0.022 | 0.999 ± 0.0098 | 0.9844 ± 0.0036 | 0.984 ± 0.015 | 0.986 ± 0.014 | 0.987 ± 0.0035 | 0.849 ± 0.015 | 0.909 ± 0.055 | 0.74 ± 0.063 | 0.567 ± 0.076 | 0.418 ± 0.099 | 0.342 ± 0.12 | 0.048 ± 0.14 | 1.07 ± 0.063 | 1.03 ± 0.068 | 1.019 ± 0.0099 | 1.02 ± 0.038 | 1.01 ± 0.069 | 0.897 ± 0.021 | 1.04 ± 0.075 | 0.968 ± 0.11 | 0.94 ± 0.051 | 0.909 ± 0.075 | 0.878 ± 0.05 | 0.762 ± 0.11 |
| CC(=O)Nc1nc(C)c(-c2ccc(Cl)c(S(=O)(=O)NCCO)c2)s1 | 1.08 ± 0.094 | 1.03 ± 0.14 | 0.994 ± 0.22 | 0.88 ± 0.28 | 0.441 ± 0.11 | 0.0722 ± 0.078 | 0.9973 ± 0.0055 | 0.995 ± 0.02 | 0.993 ± 0.029 | 0.959 ± 0.026 | 0.831 ± 0.094 | 0.502 ± 0.077 | 1.013 ± 0.0069 | 1.01 ± 0.02 | 0.99 ± 0.056 | 0.929 ± 0.093 | 0.585 ± 0.16 | 0.162 ± 0.19 | 1.09 ± 0.03 | 1.09 ± 0.045 | 1.01 ± 0.094 | 0.916 ± 0.12 | 0.597 ± 0.037 | 0.00524 ± 0.12 | 1.01 ± 0.055 | 1.01 ± 0.061 | 0.999 ± 0.1 | 0.919 ± 0.061 | 0.78 ± 0.036 | 0.272 ± 0.021 | 1.024 ± 0.0077 | 1.02 ± 0.03 | 1.05 ± 0.034 | 0.973 ± 0.068 | 0.746 ± 0.033 | 0.0954 ± 0.044 |
| CC(=O)c1c(C)c2cnc(Nc3ccc(N4CCNCC4)cn3)nc2n(C2CCCC2)c1=O [palbociclib] | 0.696 ± 0.09 | 0.552 ± 0.13 | 0.447 ± 0.15 | 0.356 ± 0.13 | 0.32 ± 0.055 | 0.294 ± 0.024 | 0.839 ± 0.037 | 0.743 ± 0.052 | 0.666 ± 0.048 | 0.581 ± 0.038 | 0.534 ± 0.019 | 0.408 ± 0.051 | 0.68 ± 0.03 | 0.569 ± 0.024 | 0.485 ± 0.044 | 0.411 ± 0.032 | 0.397 ± 0.019 | 0.327 ± 0.018 | 0.819 ± 0.12 | 0.683 ± 0.037 | 0.612 ± 0.05 | 0.595 ± 0.038 | 0.568 ± 0.049 | 0.517 ± 0.046 | 0.675 ± 0.092 | 0.579 ± 0.077 | 0.477 ± 0.075 | 0.407 ± 0.043 | 0.35 ± 0.027 | 0.278 ± 0.039 | 0.654 ± 0.069 | 0.53 ± 0.14 | 0.412 ± 0.13 | 0.295 ± 0.082 | 0.273 ± 0.066 | 0.196 ± 0.033 |
| N#CC[C@H](C1CCCC1)n1cc(-c2ncnc3[nH]ccc23)cn1 [ruxolitinib] | 0.967 ± 0.062 | 0.948 ± 0.047 | 0.963 ± 0.042 | 1.05 ± 0.038 | 1.05 ± 0.027 | 0.778 ± 0.075 | 0.9818 ± 0.0081 | 0.9898 ± 0.007 | 0.978 ± 0.011 | 0.956 ± 0.019 | 0.948 ± 0.021 | 0.828 ± 0.039 | 0.9891 ± 0.0054 | 0.985 ± 0.039 | 0.973 ± 0.023 | 0.9536 ± 0.0035 | 0.901 ± 0.021 | 0.693 ± 0.031 | 0.882 ± 0.12 | 0.903 ± 0.098 | 0.922 ± 0.086 | 0.918 ± 0.057 | 0.958 ± 0.084 | 0.81 ± 0.18 | 0.938 ± 0.065 | 0.922 ± 0.052 | 0.933 ± 0.087 | 0.95 ± 0.069 | 0.95 ± 0.043 | 0.673 ± 0.26 | 0.973 ± 0.066 | 0.942 ± 0.019 | 0.95 ± 0.046 | 0.973 ± 0.08 | 0.933 ± 0.087 | 0.707 ± 0.074 |
| O=c1cc(N2CCOCC2)oc2c(-c3cccc4c3sc3ccccc34)cccc12 [NU-7441] | 1 ± 0.055 | 0.955 ± 0.024 | 0.937 ± 0.053 | 0.892 ± 0.1 | 0.747 ± 0.11 | 0.241 ± 0.28 | 1.022 ± 0.0064 | 1.001 ± 0.0035 | 0.9817 ± 0.005 | 0.957 ± 0.015 | 0.894 ± 0.034 | 0.357 ± 0.3 | 0.974 ± 0.01 | 0.9337 ± 0.0078 | 0.911 ± 0.022 | 0.789 ± 0.037 | 0.612 ± 0.02 | 0.144 ± 0.094 | 1.04 ± 0.036 | 0.957 ± 0.035 | 0.868 ± 0.061 | 0.714 ± 0.15 | 0.644 ± 0.082 | 0.199 ± 0.077 | 1.02 ± 0.043 | 0.955 ± 0.046 | 0.892 ± 0.085 | 0.843 ± 0.075 | 0.579 ± 0.11 | 0.147 ± 0.16 | 1.06 ± 0.025 | 1.02 ± 0.044 | 0.998 ± 0.035 | 0.958 ± 0.049 | 0.853 ± 0.098 | 0.263 ± 0.17 |
| CC(C)(C)c1cnc(CSc2cnc(NC(=O)C3CCNCC3)s2)o1 | -0.0791 ± 0.16 | -0.295 ± 0.04 | -0.329 ± 0.061 | -0.326 ± 0.058 | -0.34 ± 0.063 | -0.354 ± 0.083 | 0.921 ± 0.093 | 0.0575 ± 0.011 | -0.186 ± 0.2 | -0.256 ± 0.23 | -0.261 ± 0.23 | -0.254 ± 0.19 | 0.786 ± 0.044 | -0.123 ± 0.12 | -0.146 ± 0.094 | -0.155 ± 0.12 | -0.137 ± 0.095 | -0.148 ± 0.11 | 0.464 ± 0.18 | -0.223 ± 0.15 | -0.312 ± 0.17 | -0.332 ± 0.17 | -0.343 ± 0.21 | -0.367 ± 0.21 | 0.314 ± 0.11 | -0.201 ± 0.17 | -0.24 ± 0.17 | -0.23 ± 0.15 | -0.203 ± 0.18 | -0.201 ± 0.14 | 0.885 ± 0.061 | 0.134 ± 0.27 | -0.239 ± 0.067 | -0.323 ± 0.17 | -0.33 ± 0.19 | -0.299 ± 0.2 |
